Four molecules from patent publication US8362010B2, “Benzenesulfonanilide compounds suitable for treating disorders that respond to modulation of the serotonin 5-HT6 receptor” (Abbott GmbH & Co. KG, priority 2009, dated 2013) can be followed below.

Where a name gives a salt, the structure may show the parent alone.

The target in the experiment is T1, h-5-HT6 receptor (Homo sapiens, UniProt P50406).
T1 construct: expressed in transfected cells; host or cells: HEK293
T1 sequence (P50406 whole entry): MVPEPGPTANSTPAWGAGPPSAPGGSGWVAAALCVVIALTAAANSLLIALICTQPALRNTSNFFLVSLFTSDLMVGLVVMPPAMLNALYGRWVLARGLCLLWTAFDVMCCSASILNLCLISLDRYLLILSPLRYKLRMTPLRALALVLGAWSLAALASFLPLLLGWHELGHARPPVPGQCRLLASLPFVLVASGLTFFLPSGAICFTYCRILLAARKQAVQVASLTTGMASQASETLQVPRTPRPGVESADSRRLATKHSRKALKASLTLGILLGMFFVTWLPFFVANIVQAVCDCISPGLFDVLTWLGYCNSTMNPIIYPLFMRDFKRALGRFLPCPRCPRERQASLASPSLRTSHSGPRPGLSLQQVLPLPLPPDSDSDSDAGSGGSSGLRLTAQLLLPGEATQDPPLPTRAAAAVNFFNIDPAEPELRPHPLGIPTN
Put plainly: 5-HT6 receptor binding assay (displacement of [3H]-LSD). As to conditions: membranes of HEK293 cells expressing h-5-HT6; 1 nM [3H]-LSD. As for the experimental part: Displacement of radioligands binding to the following cloned human receptors
Cells from stable clonal cell lines expressing the corresponding receptor (5-HT6, α1-adrenergic, dopamine D2 or histamine H1 receptors) were washed with PBS (w/o Ca^++, Mg^++) and harvested in PBS with 0.02% EDTA. […] The pellets were stored at −80° C. until use. For membrane preparation, the thawed cell pellet was resuspended in ice-cold sucrose buffer (0.25 M sucrose, 10 mM Hepes (pH 7.4), 1 mM Phenylmethylsulfonyl fluoride (PMSF) in DMSO, 5 μg/ml Pepstatin-A, 3 mM EDTA, 0.025% Bacitracin) and homogenized with a Branson Sonifier W-250 (Settings: Timer 4; Output Control 3; Duty Cycle constant; 2 to 3 cycles). Cell disruption was checked with the aid of a microscope. […] The sucrose buffer supernatant was then centrifuged at 60.000 g for 1 h at 4° C. (Beckman Ultrazentrifuge XL 80). The pellet was resuspended in 30 ml ice-cold Tris buffer (20 mM TRIS (pH 7.4), 5 μg/ml Pepstatin A, 0.1 mM PMSF, 3 mM EDTA) by pipetting through a 10 ml serological pipet and centrifuged for 1 h at 4° C. at 60.000 g. A final resuspension was performed in a small volume of ice-cold Tris buffer (see above) by pressing through a serological pipet followed by ultrasonic treatment with a Branson Sonifier W-250 (Settings: Timer 1; Output Control 3; Duty Cycle constant; 1 cycle). Protein concentration was determined (BCA-Kit; Pierce) and aliquots stored at −80° C. or in liquid nitrogen for long-term storage.
All receptor binding experiments were carried out in the corresponding assay buffer in a total volume of 200 μl in the presence of various concentrations of test compound (10^−5 M to 10^−9 M, tenfold serial dilution, duplicate determinations). The assays were terminated by filtration on polyethylenimine (PEI 0.1% or 0.3%) presoaked Packard Unifilter Plates (GF/C or GF/B) with a Tomtec MachIII U 96 well-plate harvester. After the plates had been dried for 2 h at 55° C. in a drying chamber scintillation cocktail (BetaPlate Scint; PerkinElmer) was added. Radioactivity was measured in a Microbeta Trilux two hours after the addition of the scintillation mixture. Data derived from liquid scintillation counting were analysed by iterative non-linear regression analysis with the use of the Statistical Analysis System (SAS): a program similar to “LIGAND” as described by Munson and Rodbard (Analytical Biochemistry 107, 220-239 (1980). […]
Data derived from liquid scintillation counting were analyzed by iterative non-linear regression analysis with the use of the Statistical Analysis System (SAS): a program similar to “LIGAND” as described by Munson and Rodbard (Anal. Biochem. 1980, 107, 220-239). […] IC50, nH and Ki values were expressed as geometrical mean.
`COc1ccc(NS(=O)(=O)c2cccc(OC(F)F)c2)cc1N1CCCNCC1` [Example 1, N-(3-[1,4]Diazepan-1-yl-4-methoxy-phenyl)-3-difluoromethoxy-benzenesulfonamide hydrochloride] had a Ki of less than 10 nM. `COc1ccc(NS(=O)(=O)c2ccccc2OC(F)F)cc1N1CCCNCC1` [Example 3, N-(3-[1,4]Diazepan-1-yl-4-methoxy-phenyl)-2-difluoromethoxy-benzenesulfonamide hydrochloride] registered a Ki of less than 10 nM. In turn, `Cc1ccc(NS(=O)(=O)c2cccc(OC(F)F)c2)cc1N1CCCNCC1` [Example 7, N-(3-[1,4]Diazepan-1-yl-4-methyl-phenyl)-3-difluoromethoxy-benzenesulfonamide hydrochloride] displayed a Ki of less than 50 nM. Take `Cc1ccc(NS(=O)(=O)c2ccccc2OC(F)F)cc1N1CCCN(C)CC1` [Example 8, 2-Difluoromethoxy-N-[4-methyl-3-(4-methyl-[1,4]diazepan-1-yl)-phenyl]-benzenesulfonamide hydrochloride]: the Ki is less than 10 nM.
